Test results published in US8530493B2, “Indolopyridines as Eg5 kinesin modulators” (4SC AG, priority 2006, dated 2013).

The compounds below were run on RKO p21 uninduced (proliferating) colon adenocarcinoma cells (assay: Alamar Blue cell viability assay, RKO p21 uninduced (proliferating)). Details: Homo sapiens, Table B3, anti-proliferative/cytotoxic activity, 72 hours, read-out: −log EC50 RKO p21 uninduced (proliferating) (converted).
Type: cell-based
Procedure: The anti-proliferative/cytotoxic activity of the compounds described herein can be tested on subclones of RKO human colon adenocarcinoma cells (Schmidt et al., Oncogene 19, 2423-2429; 2000) using the Alamar Blue cell viability assay (described in O'Brien et al. Eur J Biochem 267, 5421-5426, 2000). The compounds are dissolved as 10 mM solutions in DMSO and subsequently diluted in semi-logarithmic steps. DMSO dilutions are further diluted 1:100 into Dulbecco's modified Eagle's medium (DMEM) containing 10% fetal calf serum to a final concentration twice as much as the final concentration in the test. RKO subclones are seeded into 96 well flat bottom plates at a density of 4000 cells per well in a volume of 50 μl per well. 24 hours after seeding the 50 μl each of the compound dilutions in DMEM medium are added into each well of the 96 well plate. Each compound dilution is tested as triplicates. Wells containing untreated control cells are filled with 50 μl DMEM medium containing 1% DMSO. The cells are then incubated with the substances for 72 hours at 37° C. in a humidified atmosphere containing 5% carbon dioxide. To determine the viability of the cells, 10 μl of an Alamar Blue solution (Biosource) are added and the fluorescence is measured at an extinction of 544 nm and an emission of 590 nm. For the calculation of the cell viability the emission value from untreated cells is set as 100% viability and the emission rates of treated cells are set in relation to the values of untreated cells. Viabilities are expressed as % values. The Graphpad Prism program is used for the calculation of EC50 values for anti-proliferative/cytotoxic activity out of the obtained dose-response curves.
To determine the cell cycle specific mode of action, subclones of RKO colon adenocarcinoma cells (RKOp21 or RKOp27 as described by Schmidt et al. in Oncogene 19, 2423-2429; 2000) are seeded into 96 well flat bottom plates at a density of 16000 cells per well in a volume of 50 μl per well in DMEM growth medium with 10% FCS containing 10 μM Ponasterone A. 24 hours after seeding the 50 μl each of the compound dilutions in DMEM medium are added into each well of the 96-well plate. Each compound dilution is tested as triplicates. Wells containing untreated control cells are filled with 50 μl DMEM medium containing 1% DMSO. The cells are then incubated with the substances for 72 hours at 37° C. in a humidified atmosphere containing 5% carbon dioxide. To determine the viability of the cells, 10 μl of an Alamar Blue solution (Biosource) are added and the fluorescence is measured at an extinction of 544 nm and an emission of 590 nm. For the calculation of the cell viability the emission value from untreated cells is set as 100% viability and the emission rates of treated cells are set in relation to the values of untreated cells. Viabilities are expressed as % values. The Graphpad Prism program (GraphPad Software, Inc) is used for the calculation of EC50 values out of the obtained dose-response curves. Viability is compared of proliferating cells grown in the absence of the inducer Ponasterone A, versus viability of cells arrested by the expression of ectopic p27Kip1 induced by Ponasterone A.
Representative values for anti-proliferation/cytotoxicity [measured as −log EC50 (mol/l)] determined in the aforementioned assays follow from the following tables B1, B2 and B3, in which the numbers of the compounds correspond to the numbers of the examples.

Compound	EC50 [nM]
C#CCN(C)CCCN1C(=O)N2[C@H](c3cccc(O)c3)c3[nH]c4ccc(Cl)cc4c3C[C@@]2(C)C1=O (racemic) [Example 170, (3aSR,10RS)-6-Chloro-10-(3-hydroxy-phenyl)-3a-methyl-2-[3-(methyl-prop-2-ynyl-amino)-propyl]-3a,4,9,10-tetrahydro-2,9,10a-triaza-cyclopenta[b]fluorene-1,3-dione]	39.8 to 251
C[C@@]12Cc3c([nH]c4ccc(Cl)cc34)[C@@H](c3cccc(O)c3)N1C(=O)N(CCCN1CCOCC1)C2=O (racemic) [Example 171, (3aSR,10RS)-6-Chloro-10-(3-hydroxy-phenyl)-3a-methyl-2-(3-morpholin-4-yl-propyl)-3a,4,9,10-tetrahydro-2,9,10a-triaza-cyclopenta[b]fluorene-1,3-dione]	≤ 39.8
C[C@@]12Cc3c([nH]c4ccc(Cl)cc34)[C@@H](c3cccc(O)c3)N1C(=O)N(CCCN1CCCC1)C2=O (racemic) [Example 172, (3aSR,10RS)-6-Chloro-10-(3-hydroxy-phenyl)-3a-methyl-2-(3-pyrrolidin-1-yl-propyl)-3a,4,9,10-tetrahydro-2,9,10a-triaza-cyclopenta[b]fluorene-1,3-dione]	≤ 39.8
C[C@@]12Cc3c([nH]c4ccc(Cl)cc34)[C@@H](c3cccc(O)c3)N1C(=O)N(CCCN1CC=CC1)C2=O (racemic) [Example 173, (3aSR,10RS)-6-Chloro-2-[3-(2,5-dihydro-pyrrol-1-yl)-propyl]-10-(3-hydroxy-phenyl)-3a-methyl-3a,4,9,10-tetrahydro-2,9,10a-triaza-cyclopenta[b]fluorene-1,3-dione]	≤ 39.8
C[C@@]12Cc3c([nH]c4ccc(Cl)cc34)[C@@H](c3cccc(O)c3)N1C(=O)N(CCCN1CC=CCC1)C2=O (racemic) [Example 174, (3aSR,10RS)-6-Chloro-2-[3-(3,6-dihydro-2H-pyridin-1-yl)-propyl]-10-(3-hydroxy-phenyl)-3a-methyl-3a,4,9,10-tetrahydro-2,9,10a-triaza-cyclopenta[b]fluorene-1,3-dione]	≤ 39.8
CN1CCN(CCCN2C(=O)N3[C@H](c4cccc(O)c4)c4[nH]c5ccc(Cl)cc5c4C[C@@]3(C)C2=O)CC1 (racemic) [Example 175, (3aSR,10RS)-6-Chloro-10-(3-hydroxy-phenyl)-3a-methyl-2-[3-(4-methyl-piperazin-1-yl)-propyl]-3a,4,9,10-tetrahydro-2,9,10a-triaza-cyclopenta[b]fluorene-1,3-dione]	≤ 39.8
CCN(CC)CCCN1C(=O)N2[C@H](c3cccc(O)c3)c3[nH]c4ccc(OC(F)F)cc4c3C[C@@]2(C)C1=O (racemic) [Example 176, (3aSR,10RS)-2-(3-Diethylamino-propyl)-6-(1,1-difluoro-methoxy)-10-(3-hydroxy-phenyl)-3a-methyl-3a,4,9,10-tetrahydro-2,9,10a-triaza-cyclopenta[b]fluorene-1,3-dione]	≤ 39.8
CCN(CCO)CCCN1C(=O)N2[C@H](c3cccc(O)c3)c3[nH]c4ccc(OC(F)F)cc4c3C[C@@]2(C)C1=O (racemic) [Example 177, (3aSR,10RS)-6-(1,1-Difluoro-methoxy)-2-{3-[ethyl-(2-hydroxy-ethyl)-amino]-propyl}-10-(3-hydroxy-phenyl)-3a-methyl-3a,4,9,10-tetrahydro-2,9,10a-triaza-cyclopenta[b]fluorene-1,3-dione]	≤ 39.8
CCN(CCCN1C(=O)N2[C@H](c3cccc(O)c3)c3[nH]c4ccc(OC(F)F)cc4c3C[C@@]2(C)C1=O)CCOC (racemic) [Example 178, (3aSR,10RS)-6-(1,1-Difluoro-methoxy)-2-{3-[ethyl-(2-methoxy-ethyl)-amino]-propyl}-10-(3-hydroxy-phenyl)-3a-methyl-3a,4,9,10-tetrahydro-2,9,10a-triaza-cyclopenta[b]fluorene-1,3-dione]	≤ 39.8
CC(C)N(C)CCCN1C(=O)N2[C@H](c3cccc(O)c3)c3[nH]c4ccc(OC(F)F)cc4c3C[C@@]2(C)C1=O (racemic) [Example 179, (3aSR,10RS)-6-(1,1-Difluoro-methoxy)-10-(3-hydroxy-phenyl)-2-[3-(isopropyl-methyl-amino)-propyl]-3a-methyl-3a,4,9,10-tetarhydro-2,9,10a-triaza-cyclopenta[b]fluorene-1,3-dione]	≤ 39.8
C[C@@]12Cc3c([nH]c4ccc(Cl)cc34)[C@@H](c3cccc(O)c3)N1C(=O)N(CCCN1CCCCCC1)C2=O (racemic) [Example 180, (3aSR,10RS)-2-(3-Azepan-1-yl-propyl)-6-chloro-10-(3-hydroxy-phenyl)-3a-methyl-3a,4,9,10-tetrahydro-2,9,10a-triaza-cyclopenta[b]fluorene-1,3-dione]	≤ 39.8
C[C@@]12Cc3c([nH]c4ccc(Cl)cc34)[C@@H](c3cccc(O)c3)N1C(=O)N(CCCN1CCCCC1)C2=O (racemic) [Example 181, (3aSR,10RS)-6-Chloro-10-(3-hydroxy-phenyl)-3a-methyl-2-(3-piperidin-1-yl-propyl)-3a,4,9,10-tetrahydro-2,9,10a-triaza-cyclopenta[b]fluorene-1,3-dione]	≤ 39.8
CC(C)(C)NCCCN1C(=O)N2[C@H](c3cccc(O)c3)c3[nH]c4ccc(OC(F)F)cc4c3C[C@@]2(C)C1=O (racemic) [Example 182, (3aSR,10RS)-2-(3-tert-Butylamino-propyl)-6-(1,1-difluoro-methoxy)-10-(3-hydroxy-phenyl)-3a-methyl-3a,4,9,10-tetrahydro-2,9,10a-triaza-cyclopenta[b]fluorene-1,3-dione]	≤ 39.8
C=CCN(C)CCCN1C(=O)N2[C@H](c3cccc(O)c3)c3[nH]c4ccc(OC(F)F)cc4c3C[C@@]2(C)C1=O (racemic) [Example 184, (3aSR,10RS)-2-[3-(Allyl-methyl-amino)-propyl]-6-(1,1-difluoro-methoxy)-10-(3-hydroxy-phenyl)-3a-methyl-3a,4,9,10-tetrahydro-2,9,10a-triaza-cyclopenta[b]fluorene-1,3-dione]	39.8 to 251
COCCNCCCN1C(=O)N2[C@H](c3cccc(O)c3)c3[nH]c4ccc(Cl)cc4c3C[C@@]2(C)C1=O (racemic) [Example 185, (3aSR,10RS)-6-Chloro-10-(3-hydroxy-phenyl)-2-[3-(2-methoxy-ethylamino)-propyl]-3a-methyl-3a,4,9,10-tetrahydro-2,9,10a-triaza-cyclopenta[b]fluorene-1,3-dione]	≤ 39.8
CCOc1ccc2[nH]c3c(c2c1)C[C@@]1(C)C(=O)N(CCCNC)C(=O)N1[C@@H]3c1cccc(O)c1 (racemic) [Example 186, (3aSR,10RS)-6-Ethoxy-10-(3-hydroxy-phenyl)-3a-methyl-2-(3-methylamino-propyl)-3a,4,9,10-tetrahydro-2,9,10a-triaza-cyclopenta[b]fluorene-1,3-dione]	39.8 to 251
CCNCCCN1C(=O)N2[C@H](c3cccc(O)c3)c3[nH]c4ccc(OCC)cc4c3C[C@@]2(C)C1=O (racemic) [Example 187, (3aSR,10RS)-6-Ethoxy-2-(3-ethylamino-propyl)-10-(3-hydroxy-phenyl)-3a-methyl-3a,4,9,10-tetrahydro-2,9,10a-triaza-cyclopenta[b]fluorene-1,3-dione]	39.8 to 251
CCOc1ccc2[nH]c3c(c2c1)C[C@@]1(C)C(=O)N(CCCNCC2CC2)C(=O)N1[C@@H]3c1cccc(O)c1 (racemic) [Example 188, (3aSR,10RS)-2-[3-(Cyclopropylmethyl-amino)-propyl]-6-ethoxy-10-(3-hydroxy-phenyl)-3a-methyl-3a,4,9,10-tetrahydro-2,9,10a-triaza-cyclopenta[b]fluorene-1,3-dione]	39.8 to 251
CCOc1ccc2[nH]c3c(c2c1)C[C@@]1(C)C(=O)N(CCCNCCOC)C(=O)N1[C@@H]3c1cccc(O)c1 (racemic) [Example 189, (3aSR,10RS)-6-Ethoxy-10-(3-hydroyx-phenyl)-2-[3-(2-methoxy-ethylamino)-propyl]-3a-methyl-3a,4,9,10-tetrahydro-2,9,10a-triaza-cyclopenta[b]fluorene-1,3-dione]	39.8 to 251
